Molecular target: CXCR4 (Homo sapiens, UniProt P61073)
Experiment: HPB-ALL CXCR4 competitive binding assay (12G5 binding assay)
Parameters: HPB-ALL cells were maintained in RPMI-1640 (Gibico) supplemented with 10% FBS (Hyclone); endogenous in cells; host or cells: HPB-ALL cells
Conditions: HPB-ALL cells; competition with APC-conjugated anti-human CXCR4 clone 12G5 at its EC80; 4° C. for 3 h; FACS
Description: HPB-ALL CXCR4 Competitive Binding Assay
HPB-ALL cells were maintained in RPMI-1640 (Gibico) supplemented with 10% FBS (Hyclone). APC-conjugated anti-human CXCR4 was from Sungene. EC80 was first determined for 12G5 binding to CXCR4. Then the compounds for testing were added into 96-well plates serially diluted at a ratio of 1:3. Cells were washed once with ice-cold assay buffer (DPBS+2% HI-FBS) and then re-suspended in the same buffer at a final concentration of 1×10^6/mL. Cell suspension was then added into the wells and with the addition of APC-conjugated anti-human CXCR4 clone 12G5 at its EC80 determined. The mix of cell, compounds and APC-conjugated anti-human CXCR4 were incubated at 4° C. for 3 h before addition of 100 μL of 4% PFA. Cells were then washed once and resuspended in assay buffer and examined by FACS. The percent (%) effect at each concentration of compound was calculated and relative to the amount of calcium produced in the positive and negative control wells contained within each assay plate. The concentrations and % effect values for tested compounds were plotted and the concentration of compound required for 50% effect (IC50) was determined. Tables 2 summarize results of the CXCR4 competitive binding assay for selected compounds disclosed in the present disclosure. FIGS. 1-2 depict the IC50 curves of compounds A42 and A43.

CXCR4, sequence (P61073 whole entry): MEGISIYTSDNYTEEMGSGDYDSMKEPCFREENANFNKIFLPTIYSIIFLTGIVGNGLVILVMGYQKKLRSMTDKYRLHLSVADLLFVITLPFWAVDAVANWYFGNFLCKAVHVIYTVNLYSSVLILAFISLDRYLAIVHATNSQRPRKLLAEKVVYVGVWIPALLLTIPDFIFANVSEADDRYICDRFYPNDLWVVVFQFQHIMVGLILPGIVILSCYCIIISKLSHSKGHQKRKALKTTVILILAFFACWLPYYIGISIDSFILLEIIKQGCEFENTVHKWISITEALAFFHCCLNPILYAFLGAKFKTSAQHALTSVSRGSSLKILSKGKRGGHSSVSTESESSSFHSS

IC50 [nM] | SMILES
93 | CSc1nc([C@H]2CCCN2[C@H]2CCCc3cccnc32)cc(N2CCN(C)CC2)n1 [Compound C1]
1140 | COCCN1CCN(c2cc(CN(C)C3CCCc4cccnc43)ncn2)CC1 (stereo not shown) [Compound A6]
13 | Cc1nc(CN(C)[C@H]2CCCc3cccnc32)cc(N2CCN(C)[C@H](C)C2)n1 [Compound A65]
20 | Cc1nc(CN(C)[C@H]2CCCc3cccnc32)cc(N2CCN(C)[C@@H](C)C2)n1 [Compound A66]
7.74 | Cc1nc([C@H]2C[C@@H](O)CN2[C@H]2CCCc3cccnc32)cc(N2CCN(C)CC2)n1 [Compound C16, (3R,5R)-5-(2-methyl-6-(4-methylpiperazin-1-yl)pyrimidin-4-yl)-1-((S)-5,6,7,8-tetrahydroquinolin-8-yl)pyrrolidin-3-ol]
500 | Cc1nc([C@H]2C[C@@H](O[Si](C)(C)C(C)(C)C)CN2[C@H]2CCCc3cccnc32)cc(N2CCN(C)CC2)n1 [Compound C15]
2280 | Cc1cccc([C@@H]2CCCN2Cc2cc(N3CCN(C)CC3)nc(C)n2)n1 [Compound C28]
42 | CC(C)N1CCN(c2cc(CN(C)C3CCCc4cccnc43)ncn2)CC1 (stereo not shown) [Compound A24]
1200 | Cc1nc(CN2CCC(C)C2c2ccccn2)cc(N2CCN(C)CC2)n1 (stereo not shown) [Compound C29]
21 | CCN(Cc1cc(N2CCN(C)CC2)nc(C)n1)C1CCCc2cccnc21 (stereo not shown) [Compound A57]
77 | CC(C)Oc1nc(CN(C)C2CCCc3cccnc32)cc(N2CCN(C)CC2)n1 (stereo not shown) [Compound A31]
242 | CN(Cc1cc(N2CCN(CCC#N)CC2)ncn1)C1CCCc2cccnc21 (stereo not shown) [Compound A8, 3-(4-(6-((methyl(5,6,7,8-tetrahydroquinolin-8-yl)amino)methyl)pyrimidin-4-yl)piperazin-1-yl)propanenitrile]
790 | CN1CCN(c2cc(CN(C)C3CCCc4cccnc43)nc(-c3cnn(C)c3)n2)CC1 (stereo not shown) [Compound A21]
5730 | CSc1nc(CN(C)C(CCCCNC(=O)OC(C)(C)C)c2ccccn2)cc(N2CCN(C)CC2)n1 (stereo not shown) [Compound A36]
78 | CC(C)c1nc(CN(C)C2CCCc3cccnc32)cc(N2CCN(C)CC2)n1 (stereo not shown) [Compound A29]
268 | CSc1nc([C@H](C)N(C)[C@@H]2CCCc3cccnc32)cc(N2CCN(C)CC2)n1 [Compound A33]
82 | CO[C@@H]1C[C@H](c2cc(N3CCN(C)CC3)nc(C)n2)N([C@H]2CCCc3cccnc32)C1 [Compound C21]
248 | CSc1nc(CN2CCCCC2c2ccccn2)cc(N2CCN(C)CC2)n1 (stereo not shown) [Compound C10]
146 | Cc1nc(CN(C)[C@H]2CCCc3cccnc32)cc(N2CCC(N3CCOCC3)CC2)n1 [Compound A72]
220 | Cc1nc(CN(C)[C@H](C)c2ccccn2)cc(N2CCN(C)CC2)n1 [Compound A76]
90 | Cc1nc(CN(C)[C@H]2CCCc3cccnc32)cc(NCCN2CCOCC2)n1 [Compound A71]
100 | Cc1nc(CN(C)[C@H]2CCCc3cccnc32)cc(N2CCC(N3CCN(C)CC3)CC2)n1 [Compound A74]
142 | CSc1nc(CN2CCCC2c2ccccn2)cc(N2CCN(C)CC2)n1 (stereo not shown) [Compound C11]

IC50 [nM] | SMILES
3240 | Cc1nc([C@H]2CCCCN2[C@H]2CCCc3cccnc32)cc(N2CCN(C)CC2)n1 [Compound C6]
32 | Cc1nc(CN(C)[C@H]2CCCc3cccnc32)cc(N2CCN(C)CC2CO)n1 (stereo partly shown) [Compound A73]
393 | CN(Cc1cc(N2CCNCC2)ncn1)C1CCCc2cccnc21 (stereo not shown) [Compound A7, N-methyl-N-((6-(piperazin-1-yl)pyrimidin-4-yl)methyl)-5,6,7,8-tetrahydroquinolin-8-amine]
21 | CCc1nc(CN(C)C2CCCc3cccnc32)cc(N2CCN(C)CC2)n1 (stereo not shown) [Compound A28]
23 | COc1nc(CN(C)C2CCCc3cccnc32)cc(N2CCN(C)CC2)n1 (stereo not shown) [Compound A10]
6940 | Cc1nc(CN(C)C(CCCN)c2ccccn2)cc(N2CCN(C)CC2)n1 (stereo not shown) [Compound A38]
29 | Cc1nc(CN(C)[C@H]2CCCc3cccnc32)cc(N2CCN(C)C[C@H]2C)n1 [Compound A63, (S)-N-((6-((R)-2,4-dimethylpiperazin-1-yl)-2-methylpyrimidin-4-yl)methyl)-N-methyl-5,6,7,8-tetrahydroquinolin-8-amine]
> 10000 | CN1CCN(c2cc(N(C)CC3CCCc4cccnc43)ncn2)CC1 (stereo not shown) [Compound B1]
240 | CN1CCN(c2cc(CN(C)[C@H]3CCCc4cccnc43)nc(C(F)(F)F)n2)CC1 [Compound A48]
6960 | Cc1nc([C@@H]2CCCCN2[C@@H]2CCCc3cccnc32)cc(N2CCN(C)CC2)n1 [Compound C8]
131 | Cc1cccc(C(C)N(C)Cc2cc(N3CCN(C)CC3)nc(C)n2)n1 (stereo not shown) [Compound A56]
279 | Cc1ccc([C@@H]2CCCN2Cc2cc(N3CCN(C)CC3)nc(C)n2)nc1 [Compound C27]
12 | Cc1nc(CN(C)[C@H]2CCCc3cccnc32)cc(N2C[C@@H](C)N(C)[C@@H](C)C2)n1 [Compound A67]
206 | Cc1ccnc([C@@H]2CCCN2Cc2cc(N3CCN(C)CC3)nc(C)n2)c1 [Compound C26]
27 | Cc1nc(CN(C)C(C)c2ccccn2)cc(N2CCN(C)CC2)n1 (stereo not shown) [Compound A52]
228 | CN(C)CCN(C)c1cc(CN(C)C2CCCc3cccnc32)ncn1 (stereo not shown) [Compound A2]
2690 | CN1CCN(c2cc(CN(C)C3CCCc4cccnc43)nc(-c3ccccc3)n2)CC1 (stereo not shown) [Compound A17]
46 | Cc1nc(CN(C)[C@H]2CCCc3cccnc32)cc(N2CCN3CCC[C@@H]3C2)n1 [Compound A68]
464 | CN(Cc1cc(N2CCN(CC3CC3)CC2)ncn1)C1CCCc2cccnc21 (stereo not shown) [Compound A60]
19 | CCN(Cc1cc(N2CCN(C)CC2)nc(C)n1)[C@H]1CCCc2cccnc21 [Compound A58]
58 | Cc1nc(CN(C)[C@H]2CCCc3cccnc32)cc(N2CCN(C3CC3)CC2)n1 [Compound A47]
19 | CSc1nc(CN(C)C2CCCc3cccnc32)cc(N2CCN(C)CC2)n1 (stereo not shown) [Compound A3]
9 | Cc1nc(CN(C)C2CCCc3cccnc32)c(C#N)c(N2CCN(C)CC2)n1 (stereo not shown) [Compound A77]

IC50 [nM] | SMILES
14 | Cc1nc(CN(C)C2CCCc3cccnc32)cc(N2CCN(C)CC2)n1 (stereo not shown) [Compound A9, N-methyl-N-((2-methyl-6-(4-methylpiperazin-1-yl)pyrimidin-4-yl)methyl)-5,6,7,8-tetrahydroquinolin-8-amine]
356 | Cc1ccnc(C(C)N(C)Cc2cc(N3CCN(C)CC3)nc(C)n2)c1 (stereo not shown) [Compound A54]
26 | CN1CCN(c2cc(CN(C)C3CCCc4cccnc43)nc(C3CC3)n2)CC1 (stereo not shown) [Compound A11]
429 | CSc1nc(CN2CCCCC2c2ccccn2)cc(N2CCN(C)CC2)n1 (stereo not shown) [Compound C18]
2290 | Cc1nc(CN(C)C(C)(C)c2ccccn2)cc(N2CCN(C)CC2)n1 [Compound A62]
47 | CSc1nc([C@@H](C)N(C)[C@H]2CCCc3cccnc32)cc(N2CCN(C)CC2)n1 [Compound A34]
144 | Cc1nc(CN2CCC[C@H]2c2ccccn2)cc(N2CCN(C)CC2)n1 [Compound C23]
22 | CSc1nc([C@H](C)N(C)[C@H]2CCCc3cccnc32)cc(N2CCN(C)CC2)n1 [Compound A32]
34 | CCN1CCN(c2cc(CN(C)C3CCCc4cccnc43)ncn2)CC1 (stereo not shown) [Compound A23]
211 | CN1CCN(c2ccnc(CN(C)C3CCCc4cccnc43)n2)CC1 (stereo not shown) [Compound A50, N-methyl-N-((4-(4-methylpiperazin-1-yl)pyrimidin-2-yl)methyl)-5,6,7,8-tetrahydroquinolin-8-amine]
113 | CN(Cc1cc(N2CCN(CCO)CC2)ncn1)C1CCCc2cccnc21 (stereo not shown) [Compound A5]
229 | CC(c1ccccn1)N(C)Cc1cc(N2CCN(C)CC2)ncn1 (stereo not shown) [Compound A4]
33 | Cc1nc(CN(C)C(C)c2ncccc2C)cc(N2CCN(C)CC2)n1 (stereo not shown) [Compound A53]
2250 | CN1CCN(c2cc(CN(C)C3CCCc4cccnc43)nc(N3CCOCC3)n2)CC1 (stereo not shown) [Compound A14]
886 | CCN1CCN(c2cc(CN(C)C3c4ncccc4CCC34CC4)nc(C)n2)CC1 (stereo not shown) [Compound A45]
4430 | Cc1nc(CN(C)C(CCCNC(=O)OC(C)(C)C)c2ccccn2)cc(N2CCN(C)CC2)n1 (stereo not shown) [Compound A37]
16 | Cc1nc(CN(C)C2CCCc3cccnc32)c(F)c(N2CCN(C)CC2)n1 (stereo not shown) [Compound A51]
65 | CCOc1nc(CN(C)C2CCCc3cccnc32)cc(N2CCN(C)CC2)n1 (stereo not shown) [Compound A30]
106 | CSc1nc([C@@H](C)N(C)[C@@H]2CCCc3cccnc32)cc(N2CCN(C)CC2)n1 [Compound A35]
43 | CNc1nc(CN(C)C2CCCc3cccnc32)cc(N2CCN(C)CC2)n1 (stereo not shown) [Compound A18]
> 10000 | CN(C)c1ncc(CN(C)C2CCCc3cccnc32)c(NCCNC(=O)OC(C)(C)C)n1 (stereo not shown) [Compound B7, reference compound]

From patent publication US11396501B2, “Heteroaryl compounds as CXCR4 inhibitors, composition and method using the same” (CGENETECH (SUZHOU, CHINA) CO., LTD., priority 2017, dated 2022)
